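Step 1: Grow cells in 96-well plates. Step 2: Expose to compound for 48 hours at 5 concentrations. Step 3: Interpolate endpoints linearly; if unreached, use highest concentration. TGI denotes the concentration required for complete inhibition of growth.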
Legend:
Assay in all cases: growth of human tumour cells (NCI), 48 h
[1] = tested on: DU-145 prostate
[2] = tested on: NCI/ADR-RES ovarian
[3] = tested on: BT-549 breast
[4] = tested on: EKVX NSCLC
[5] = tested on: 786-0 renal
[6] = tested on: NCI-H226 lung
[7] = tested on: HCT-116 colon
[8] = tested on: SK-MEL-2 melanoma
[9] = tested on: NCI-H460 lung
[10] = tested on: COLO 205 colon
[11] = tested on: OVCAR-8 ovarian
[12] = tested on: UO-31 renal
[13] = tested on: K-562 leukemia
[14] = tested on: UACC-62 melanoma
[15] = tested on: HOP-62 NSCLC
[16] = tested on: HCT-15 colon
[17] = tested on: A549 NSCLC
[18] = tested on: OVCAR-5 ovarian
[19] = tested on: HS 578T breast
[20] = tested on: MCF7 breast
[21] = tested on: CCRF-CEM leukemia
[22] = tested on: SF-295 CNS
[23] = tested on: OVCAR-4 ovarian
[24] = tested on: A498 renal
[25] = tested on: SW-620 colon
[26] = tested on: HOP-92 NSCLC
[27] = tested on: SF-539 CNS
[28] = tested on: IGROV1 ovarian
[29] = tested on: MOLT-4 leukemia
[30] = tested on: SNB-75 CNS
[31] = tested on: MDA-MB-435
[32] = tested on: SNB-19 CNS
[33] = tested on: SR leukemia
[34] = tested on: NCI-H23 lung
[35] = tested on: MDA-N
[36] = tested on: HT29 colon
[37] = tested on: SK-MEL-5 melanoma
[38] = tested on: LOX IMVI melanoma
[39] = tested on: MALME-3M melanoma
[40] = tested on: PC-3 prostate
[41] = tested on: UACC-257 melanoma
[42] = tested on: TK-10 renal
[43] = tested on: HCC-2998 colon
[44] = tested on: T-47D breast
[45] = tested on: U251 CNS
[46] = tested on: M14 melanoma
[47] = tested on: CAKI-1 renal
[48] = tested on: SK-OV-3 ovarian
[49] = tested on: SN12C renal
[50] = tested on: KM12 colon
[51] = tested on: OVCAR-3 ovarian
[52] = tested on: SK-MEL-28 melanoma
[53] = tested on: ACHN renal
[54] = tested on: MDA-MB-231 breast
[55] = tested on: RPMI-8226 leukemia
[56] = tested on: SF-268 CNS
[57] = tested on: RXF 393 renal
[58] = tested on: HL-60(TB) leukemia
[59] = tested on: NCI-H522 lung

Measured: TGI

O=C(/C=C/c1ccc2c(c1)OCO2)NCc1ccco1
80.9 µM: [44]
not listed: [55] | [56] | [57] | [58] | [59]
> 100 µM: all other assays above

N=C(c1ccc(-c2cn3cc(C(=N)N4CCCC4)ccc3n2)cc1)N1CCCC1
83.1 µM: [21]
0.158 µM: [58]
not listed: [9] | [20] | [24] | [27] | [43]
> 100 µM: all other assays above
